Consider eight molecules from patent US20250188092A1, “RIFAMYCIN ANALOGS” (THE REGENTS OF THE UNIVERSITY OF MICHIGAN, priority 2021, published 2025).

Molecules are shown by their SMILES.

The target of data set [1] is T1, E. coli D516V (RIF^R) RNAP (Escherichia coli, UniProt P0A8V2, D516V).
T1 construct: made in house
As to the kind of experiment: biochemical.

Data set [2] has as its target T2, E. coli S531L (RIF^R) RNAP (Escherichia coli, UniProt P0A8V2, S531L).
T2 construct: made in house
As to the kind of experiment: biochemical.

The target of a further data set is T3, E. coli WT RNAP (Escherichia coli, UniProt P0A8V2).
T3 construct: made in house
Nature of the data set: biochemical.

The subject of another data set is VERO cells (ATCC CRL-81). Nature of the data set: Vero cell toxicity. Type of data set: cell-based. The following applies: Chlorocebus sabaeus, Vero; 72 hours exposure. As to the method:
Cytotoxicity for a mammalian cell line was determined by exposing VERO cells (ATCC CRL-81) to serial dilutions of test compounds for 72 hours, followed by addition of resazurin and measurement of fluorescence after 4 hours incubation (Choules, et al., Antimnicrob. Agents Chemother. 2019, 63, e02204-02218).

In the next data set the test system is DPX2 cells. The following applies: for DPX2 Viability @ 6.25 μM: 24 h; for DPX2 Viability @ 25 μM: human.
For another data set, the system named is MTB H37Rv ATCC 27294. Nature of the data set: MIC, microplate Alamar Blue assay (MABA). It is filed as cell-based, Mycobacterium tuberculosis.
A further data set has as its system M. tuberculosis H37Rv. Nature of the data set: Minimum bactericidal concentration (MBC, CFU Assay). It is filed as cell-based, Mycobacterium tuberculosis. To be noted: for MBC99 Day 7 (CFU Assay) MBC99 Rel to RMP: CFU Assay MBC99 relative to rifampin (RMP = 1); for MBC: Mycobacterium tuberculosis, 168 h, Day 7, M. tuberculosis H37Rv, ≥99% reduction in colony forming units, read-out: MBC99 Day 7 (CFU Assay) MBC99.

Setting [3] is: Mycobacterium tuberculosis, MTB H37Rv ATCC 27294, microplate Alamar Blue assay, lowest concentration giving ≥90% reduction in fluorescence.

Regarding `CO[C@H]1/C=C/O[C@@]2(C)Oc3c(C)c(O)c4c(=O)c(c5oc6cccc(OCCCCN7CCNCC7)c6nc-5c4c3C2=O)NC(=O)/C(C)=C\C=C\[C@H](C)[C@H](O)[C@@H](C)[C@@H](O)[C@@H](C)[C@H](OC(C)=O)[C@@H]1C` [Compound 5d, (7S,9E,11S,12R,13S,14R,15R,16R,17S,18S,19E,21Z)-2,15,17-Trihydroxy-11-methoxy-3,7,12,14,16,18,22-heptamethyl-6,23,37-trioxo-32-[4-(piperazin-1-yl)butoxy]-8,27,38-trioxa-24,34-diazahexacyclo[23.11.1.1^4,7.0^5,36.0^26,35.0^28,33]octatriaconta-1(36)2,4,9,19,21,25,28,30,32,34-undecaen-13-yl acetate], the concentration for half-maximal inhibition (IC50) in data set [1] is 29 µM; in data set [2] it was 440 µM; against E. coli WT RNAP, 0.006 µM; in the data set on VERO cells (ATCC CRL-81), > 8 µM. The “DPX2 Viability @ 6.25 μM” value in the data set with DPX2 cells was determined as 102%. The “DPX2 Viability @ 25 μM” value with DPX2 cells is given as 59%.
Turning to `CO[C@H]1/C=C/O[C@@]2(C)Oc3c(C)c(O)c4c(=O)c(c5oc6cccc(OCCCCN7CCN(C(=O)CN8CCOCC8)CC7)c6nc-5c4c3C2=O)NC(=O)/C(C)=C\C=C\[C@H](C)[C@H](O)[C@@H](C)[C@@H](O)[C@@H](C)[C@H](OC(C)=O)[C@@H]1C` [Compound 5e, (7S,9E,11S,12R,13S,14R,15R,16R,17S,18S,19E,21Z)-2,15,17-Trihydroxy-11-methoxy-3,7,12,14,16,18,22-heptamethyl-32-(4-{4-[2-(morpholin-4-yl)acetyl]piperazin-1-yl}butoxy)-6,23,37-trioxo-8,27,38-trioxa-24,34-diazahexacyclo[23.11.1.1^4,7.0^5,36.0^26,35.0^28,33]octatriaconta-1(36)2,4,9,19,21,25,28(33)29,31,34-undecaen-13-yl acetate], the IC50 is 23 µM in data set [1], > 1000 µM in data set [2], 0.007 µM against E. coli WT RNAP and > 8 µM in the data set on VERO cells (ATCC CRL-81). For the same molecule, the “DPX2 Viability @ 6.25 μM” value in the data set with DPX2 cells was found to be 106%. In the data set with DPX2 cells, the “DPX2 Viability @ 25 μM” value is recorded as 83%. The “MIC90 MABA Rel to RMP” value with MTB H37Rv ATCC 27294 came out at 1.4. In the data set with MTB H37Rv ATCC 27294 (Mycobacterium tuberculosis, MTB H37Rv ATCC 27294, microplate Alamar Blue assay, lowest concentration giving ≥90% reduction in fluorescence, read-out: MIC90 MABA), the MIC is 0.082 µM.
`CO[C@H]1/C=C/O[C@@]2(C)Oc3c(C)c(O)c4c(=O)c(c5oc6cccc(OCc7cccc(CN8CCN(C(C)=O)CC8)c7)c6nc-5c4c3C2=O)NC(=O)/C(C)=C\C=C\[C@H](C)[C@H](O)[C@@H](C)[C@@H](O)[C@@H](C)[C@H](OC(C)=O)[C@@H]1C` [Compound 11c, (7S,9E,11S,12R,13S,14R,15R,16R,17S,18S,19E,21Z)-32-({3-[(4-Acetylpiperazin-1-yl)methyl]phenyl}methoxy)-2,15,17-trihydroxy-11-methoxy-3,7,12,14,16,18,22-heptamethyl-6,23,37-trioxo-8,27,38-trioxa-24,34-diazahexacyclo-[23.11.1.1^4,7.0^5,36.0^26,35.0^28,33]octatriaconta-1(36)2,4,9,19,21,25,28,30,32,34-undecaen-13-yl acetate]: the IC50 in data set [1] is 8.8 µM; in data set [2] it was 330 µM; against E. coli WT RNAP, 0.019 µM; in the data set with VERO cells (ATCC CRL-81), > 8 µM. Further, the “DPX2 Viability @ 6.25 μM” value in the data set with DPX2 cells is listed as 103%. For the same molecule, in the data set with DPX2 cells, the “DPX2 Viability @ 25 μM” value worked out at 70%. In addition, in the data set on MTB H37Rv ATCC 27294, the “MIC90 MABA Rel to RMP” value was found to be 1.4. Moreover, the MIC90 against MTB H37Rv ATCC 27294 (setting [3]) came out at 0.058 µM.
With `CCC(=O)N1CCN(Cc2cccc(COc3cccc4oc5c6c(=O)c7c(O)c(C)c8c(c7c-5nc34)C(=O)[C@@](C)(O/C=C/[C@H](OC)[C@@H](C)[C@@H](OC(C)=O)[C@H](C)[C@H](O)[C@H](C)[C@@H](O)[C@@H](C)/C=C/C=C(/C)C(=O)N6)O8)c2)CC1` [Compound 11d, (7S,9E,11S,12R,13S,14R,15R,16R,17S,1S,19E,21Z)-2,15,17-Trihydroxy-11-methoxy-3,7,12,14,16,18,22-heptamethyl-6,23,37-trioxo-32-{(3-[(4-propanoylpiperazin-1-yl)methyl]phenyl}methoxy)-8,27,38-trioxa-24,34-diazahexacyclo[23.11.1.1^4,7.0^5,36.0^26,35.0^28,33]octatriaconta-1(36)2,4,9,19,21,25,28,30,32,34-undecaen-13-yl acetate], the IC50 in data set [1] is 0.9 µM; in data set [2] it was 94 µM; at E. coli WT RNAP, < 0.005 µM; in the data set on VERO cells (ATCC CRL-81), 19.1 µM. Besides, the “DPX2 Viability @ 6.25 μM” value in the data set with DPX2 cells turned out to be 77%. Also, the “DPX2 Viability @ 25 μM” value with DPX2 cells came to 33%. Besides, the “MIC90 MABA Rel to RMP” value against MTB H37Rv ATCC 27294 is recorded as 0.43. The molecule also had an MIC90 in the data set with MTB H37Rv ATCC 27294 (setting [3]) of 0.016 µM.
On to `CO[C@H]1/C=C/O[C@@]2(C)Oc3c(C)c(O)c4c(=O)c(c5oc6cccc(OCc7cccc(CN8CCN(C(=O)CN9CCOCC9)CC8)c7)c6nc-5c4c3C2=O)NC(=O)/C(C)=C\C=C\[C@H](C)[C@H](O)[C@@H](C)[C@@H](O)[C@@H](C)[C@H](OC(C)=O)[C@@H]1C` [Compound 11f, (7S,9E,11S,12R,13S,14R,15R,16R,17S,1S,19E,21Z)-2,15,17-Trihydroxy-11-methoxy-3,7,12,14,16,18,22-heptamethyl-32-{[3-({4-[2-(morpholin-4-yl)acetyl]piperazin-1-yl}methyl)phenyl]methoxy}-6,23,37-trioxo-8,27,38-trioxa-24,34-diazahexacyclo[23.11.1.1^4,7.0^5,36.0^26,35.0^28,33]octatriaconta-1(36)2,4,9,19,21,25,28,30,32,34-undecaen-13-yl acetate], for which the IC50 is 39 µM in data set [1], > 500 µM in data set [2], 0.01 µM against E. coli WT RNAP and 6.2 µM in the data set on VERO cells (ATCC CRL-81). Further, the “DPX2 Viability @ 6.25 μM” value in the data set on DPX2 cells came to 103%. In addition, the “DPX2 Viability” value in the data set on DPX2 cells ([…] μM) is 57%. The “MIC90 MABA Rel to RMP” value against MTB H37Rv ATCC 27294 worked out at 0.65. For the same molecule, the MIC90 against MTB H37Rv ATCC 27294 (setting [3]) amounted to 0.024 µM.
In the case of `CO[C@H]1/C=C/O[C@@]2(C)Oc3c(C)c(O)c4c(=O)c(c5oc6cc(N7CCN(CCCO[C@@H]8COc9nc([N+](=O)[O-])cn9C8)CC7)cc(C)c6nc-5c4c3C2=O)NC(=O)/C(C)=C\C=C\[C@H](C)[C@H](O)[C@@H](C)[C@@H](O)[C@@H](C)[C@H](OC(C)=O)[C@@H]1C` [Compound 29d, (7S,9E,11S,12R,13S,14R,15R,16R,17S,18S,19E,21Z)-2,15,17-Trihydroxy-11-methoxy-3,7,12,14,16,18,22,32-octamethyl-30-[4-(3-{[(6S)-2-nitro-5H,6H,7H-imidazo[2,1-b][1,3]oxazin-6-yl]oxy}propyl)piperazin-1-yl]-6,23,37-trioxo-8,27,38-trioxa-24,34-diazahexacyclo[23.11.1.1^4,7.0^5,36.0^26,35.0^28,33]octatriaconta-1(36)2,4,9,19,21,25,28,30,32,34-undecaen-13-yl acetate], in the data set with M. tuberculosis H37Rv, the “MBC99 Day 7 (CFU Assay) MBC99 Rel to RMP” value was determined as 0.62 and the MBC is 0.08 µM. For the same molecule, the concentration for half-maximal inhibition (IC50) with VERO cells (ATCC CRL-81) was > 10 µM. Further, in the data set on DPX2 cells, the “DPX2 Viability @ 6.25 μM” value is recorded as 114% and the “DPX2 Viability @ 25 μM” value was 101%. Further, in the data set with MTB H37Rv ATCC 27294, the “MIC90 MABA Rel to RMP” value is given as 1.37. Besides, the MIC90 in the data set with MTB H37Rv ATCC 27294 (setting [3]) worked out at 0.037 µM.
Turning to `CO[C@H]1/C=C/O[C@@]2(C)Oc3c(C)c(O)c4c(=O)c(c5oc6cc(C)cc(N7CCN(C(=O)c8cccc(-c9ccccn9)c8)CC7)c6nc-5c4c3C2=O)NC(=O)/C(C)=C\C=C\[C@H](C)[C@H](O)[C@@H](C)[C@@H](O)[C@@H](C)[C@H](OC(C)=O)[C@@H]1C` [Compound 30g, (7S,9E,11S,12R,13S,14R,15R,16R,17S,18S,19E,21Z)-2,15,17-Trihydroxy-11-methoxy-3,7,12,14,16,18,22,30-octamethyl-6,23,37-trioxo-32-{4-[3-(pyridin-2-yl)benzoyl]piperazin-1-yl}-8,27,38-trioxa-24,34-diazahexacyclo[23.11.1.1^4,7.0^5,36.0^26,35.0^28,33]octatriaconta-1(36)2,4,9,19,21,25,28,30,32,34-undecaen-13-yl acetate], in the data set with M. tuberculosis H37Rv, the “MBC99 Day 7 (CFU Assay) MBC99 Rel to RMP” value is listed as <0.08 and the MBC is < 0.02 µM. The IC50 with VERO cells (ATCC CRL-81) is > 10 µM. For the same molecule, in the data set on DPX2 cells, the “DPX2 Viability @ 6.25 μM” value came to 99% and the “DPX2 Viability @ 25 μM” value was found to be 61%. In addition, the “MIC90 MABA Rel to RMP” value against MTB H37Rv ATCC 27294 was found to be 0.96. For the same molecule, the MIC90 against MTB H37Rv ATCC 27294 (setting [3]) amounted to 0.026 µM.
As to `CO[C@H]1/C=C/O[C@@]2(C)Oc3c(C)c(O)c4c(=O)c(c5oc6cc(C)cc(N7CCN(C(=O)c8ccc9occc9c8)CC7)c6nc-5c4c3C2=O)NC(=O)/C(C)=C\C=C\[C@H](C)[C@H](O)[C@@H](C)[C@@H](O)[C@@H](C)[C@H](OC(C)=O)[C@@H]1C` [Compound 30h, (7S,9E,11S,12R,13S,14R,15R,16R,17S,18S,19E,21Z)-32-[4-(1-Benzofuran-5-carbonyl)piperazin-1-yl]-2,15,17-trihydroxy-11-methoxy-3,7,12,14,16,18,22,30-octamethyl-6,23,37-trioxo-8,27,38-trioxa-24,34-diazahexacyclo[23.11.1.1^4,7.0^5,36.0^26,35.0^28,33]octatriaconta-1(36)2,4,9,19,21,25,28,30,32,34-undecaen-13-yl acetate], in the data set with M. tuberculosis H37Rv, the “MBC99 Day 7 (CFU Assay) MBC99 Rel to RMP” value is <0.08 and the MBC was < 0.02 µM. Also, the IC50 in the data set with VERO cells (ATCC CRL-81) is > 10 µM. Besides, in the data set with DPX2 cells, the “DPX2 Viability @ 6.25 μM” value came to 100% and the “DPX2 Viability @ 25 μM” value amounted to 57%. Also, the “MIC90 MABA Rel to RMP” value with MTB H37Rv ATCC 27294 is 0.70. Further, the MIC90 in the data set on MTB H37Rv ATCC 27294 (setting [3]) came out at 0.019 µM.
